Columns and labels:
Format in all cases: in vivo, mouse
[1] = system: wild type and estrogen receptor beta knockout (βERKO) mice; assay: Uterine weights after 3 days of treatment; settings: treated 3 days, E2 0.2 mg/kg, A 5 or 10 mg/kg, uteri collected 24 hrs after last treatment
Method: Animals (n=5/group) were treated for 3 days and brain and uteri were collected 24 hrs after last treatment.

[2] = system: Progesterone receptor (PR) protein in the dorsal raphe nucleus; assay: Murine brain progestin receptor (PR) ICC assay, dorsal raphe nucleus; settings: for PR induction in the dorsal raphe nucleus: βERKO mouse lacking functional ERβ, treated 3 days, E2 0.2 mg/kg, A 5 or 10 mg/kg, immunohistochemistry 24 h after last treatment
Method: (§1) Animals (n=5/group) were treated for 3 days and brains and uteri were collected 24 hours after the last treatment and processed for immunohistochemistry.
(§2) Female mice (12-16 wks of age) are ovariectomized by the vendor (C57BL/6s from Charles River) and shipped one week later. Animals are fed a soy-free rodent chow upon arrival at the Merck animal facility, where they are given an additional week to adjust to the new environment. […] Approximately 24 hours after the last dose, animals are deeply anesthetized with ketamine/xylazine and are transcardially perfused with 50 ml of 3.5% acrolein and 2% paraformaldehyde in 0.1 M sodium phosphate buffer (PB), pH 7.4. Brains are immediately removed and placed into ice cold 0.1 M PB and stored at 4 C overnight. Brains are sectioned at 40 μm on a vibrating microtome in 0.1M PB, transferred into cryoprotectant (30% sucrose; 30% ethylene glycol in 0.1 M PB, pH 7.4) and stored at −20° C. until processing for immunocytochemistry.
Free floating 40 μm sections are washed in cold 0.1 M phosphate buffered saline (PBS), pH 7.4, to thoroughly remove cryoprotectant. To insure consistent immunolabeling across animals, a screen-bottom 24-well tissue holder and fitted solid lucite tray containing buffer is used to conduct the experiment. Thus, all sections are co-incubated in the same solutions/conditions during the entire experiment. To deter non-specific staining in acrolein-fixed tissue, sections are washed in 1% sodium borohydride (NaBH4) in PBS for 30 minutes and rinsed 8 to 10 times with PBS. Endogenous peroxidase activity is inhibited by washing tissue in 0.3% hydrogen peroxide and 10% methanol in PBS for 15 minutes. Sections are washed in PBS and blocked in either 1) 2% normal goat serum in PBS with 0.05% Triton X-100 (PBST) for one hour, or 2) a mouse-on-mouse Ig blocking reagent (Vector) for 1 hour followed by a mouse protein concentrate (Vector) for 30 min. Sections are incubated with PR antibody in blocking buffer diluted to 1% normal serum over one night at RT and one night at 4 C, or three nights at 4 C. […]

[3] = system: PR immunoreactive cells in the hippocampus; assay: Murine brain PR ICC assay, hippocampus (PR regulated exclusively by ERα); settings: 3 days
Method: as §1, §2
Free floating 40 μm sections are washed in cold 0.1 M phosphate buffered saline (PBS), pH 7.4, to thoroughly remove cryoprotectant. To insure consistent immunolabeling across animals, a screen-bottom 24-well tissue holder and fitted solid lucite tray containing buffer is used to conduct the experiment. Thus, all sections are co-incubated in the same solutions/conditions during the entire experiment. […]

Compound | uterine weight [1] | ER-beta activity in brain ([2]; at the doses tested (A 5 or 10 mg/kg), 3 days) | PR induction in the dorsal raphe nucleus [2] | PR immunoreactive cells in the hippocampus ([3]; 5 mg/kg) | PR immunoreactive cells in the hippocampus ([3]; high dose 10 mg/kg)
C[C@]12CC[C@H]3[C@@H](CC=C4C[C@@H](O)CC[C@@]43C)[C@@H]1CC[C@@H]2O [A, delta-5-androstene-3-beta-17-beta-diol] | only a modest effect | full ER-beta activity in brain | complete loss of PR induction | no PR immunoreactivity | just an occasional, lightly-stained cell
C[C@]12CC[C@@H]3c4ccc(O)cc4CC[C@H]3[C@@H]1CC[C@@H]2O [E2, 17β-estradiol, reference compound] | robustly increased uterine weight | – | attenuation of PR induction | – | –
